Patent publication US10842806B2, “Methods for treating ocular inflammatory disorders” (Massachusetts Eye and Ear Infirmary, priority 2011, dated 2020)

Legend:
[1] = system: experimental autoimmune uveitis (EAU); assay: Histological scoring of EAU (H&E sections); assay type: in vivo, C57BL/6 (WT) mice
ICAM-1 = ICAM-1 ELISA in aqueous humor, retina and serum of EIU rats; assay type: in vivo, Lewis rats; details: LPS + AICAR
Experimental: Male Lewis rats ranging from 6-8 weeks old (Charles River, Wilmington, Mass.) were used for these studies. To study the effects of AICAR pretreatment, AICAR and PBS (for placebo treatment) were delivered via intraperitoneal injection of AICAR (50 mg/kg or 100 mg/kg body weight; Sigma) diluted in 150 μl PBS or equal volume of PBS at 6 hours before and at the same time as LPS injection. Four experimental groups of rats were compared: (1) Normal: no treatment (2) AICAR: normal rats treated with AICAR 6 hours before examination; (3) LPS: EIU rats treated with PBS; (4) LPS+AICAR: EIU rats treated with AICAR. Two additional groups of rats were used to study the effects of AICAR (50 mg/kg) given either at the same time as LPS injection or at 6 hours after LPS injection. Under deep anesthesia, experimental rats were sacrificed and the retinas were carefully removed 24 hours after LPS injection, placed into 200 μl of lysis buffer and then sonicated. The lysate was centrifuged at 13,000 rpm for 10 minutes at 4° C. and supernatant was isolated. Three hours after LPS injection, blood samples were collected from the heart and subsequently centrifuged at 3000 rpm for 30 minutes at 4° C., and serum samples were separated. Cytokine and chemokine levels in the serum, aqueous humor, and retina were assessed using the rat CCL2/MCP-1 kit (Invitrogen, Camarillo, Calif.), the rat TNF-α kit (R&D system, Minneapolis, Minn.) and the rat ICAM-1 kit (R&D systems) by ELISA.

lymph node (LN) cells = assay: Proliferation, cytokine production and transcription factor expression of LN cells from AICAR-treated EAU mice; assay type: in vivo, C57BL/6 (WT) mice
Experimental: To extract LN cells, draining lymph nodes from 6 to 8 mice were isolated at sixteen days after immunization and pooled. Single cell suspensions were made using a cell strainer (BD, Franklin Lakes, N.J.). CD4 T cell-enriched fractions were prepared using CD4 Microbeads (Miltenyi Biotec GmbH, Bergisch Gladbach, Germany), and purity of the suspensions was determined by staining with anti-CD4 antibody (GK1.5, Biolegend, San Diego, Calif.) and flow cytometry. All experimental samples of CD4 T cell-enriched fractions were at least 95% CD4-positive. To measure cell proliferation, LN cells were resuspended at 5×10^5 cells per 200 μl of medium in 96-well flat-bottom plates. Cells were incubated for 72 hours and proliferation during the last 12 hours was measured by using a bromodeoxyuridine (BrdU) cell proliferation assay kit (Millipore, Billerica, Mass.). Supernatant in the culture medium was collected at 48 hours and cytokine production in the supernatant was measured by ELISA using the Quantikine mouse IFN-γ, IL-4, IL-10 and IL-17 kits (R&D system, Minneapolis, Minn.). To measure the expression of T-bet and RORγt, real-time PCR was carried out as described above using the following TaqMan gene expression assays: T-bet (Mm00450960_m1) and RORγt (Mm01261022_m1). Quantitative expression data were acquired and analyzed with a Step One Plus real-time PCR system (Applied Biosystems). In order to assess the in vivo effect of AICAR on the development of IRBP-reactive T cells, LN cells from control and AICAR-treated mice were stimulated with either IRBP or a non-specific T cell stimulator, anti-CD3. Proliferative response was measured with BrdU incorporation. […] In comparison, when the cells were treated with anti-CD3, there was no difference in T cell proliferation between the AICAR treated and control mice (FIG. 8B).

[2] = system: experimental autoimmune uveitis (EAU); assay: Clinical scoring of EAU by funduscopic examination; assay type: in vivo, C57BL/6 (WT) mice
[3] = system: endotoxin-induced uveitis (EIU); assay: Histopathologic evaluation of EIU eyes (iris-ciliary body); assay type: in vivo, Lewis rats; details: AICAR 50 mg/kg pretreatment, 24 h after LPS
Experimental: Male Lewis rats ranging from 6-8 weeks old (Charles River, Wilmington, Mass.) were used for these studies. To study the effects of AICAR pretreatment, AICAR and PBS (for placebo treatment) were delivered via intraperitoneal injection of AICAR (50 mg/kg or 100 mg/kg body weight; Sigma) diluted in 150 μl PBS or equal volume of PBS at 6 hours before and at the same time as LPS injection. Four experimental groups of rats were compared: (1) Normal: no treatment (2) AICAR: normal rats treated with AICAR 6 hours before examination; (3) LPS: EIU rats treated with PBS; (4) LPS+AICAR: EIU rats treated with AICAR. Two additional groups of rats were used to study the effects of AICAR (50 mg/kg) given either at the same time as LPS injection or at 6 hours after LPS injection. For histopathologic evaluations, EIU rats were euthanized 24 hours after LPS injection. The eyes were enucleated immediately and stored in 10% formalin solution. The eyes were then embedded in paraffin, and 10 μm sagittal sections were cut and stained with hematoxylin and eosin. For histopathologic evaluation, the anterior chamber and posterior chamber around the iris-ciliary body complex were examined with light microscopy.

[4] = system: CD4+CD25+Foxp3+ Treg population; assay: Treg population in LN cells of EAU mice (flow cytometry); assay type: in vivo, C57BL/6 (WT) mice; details: control vs AICAR-treated mice; 21 days after immunization
Excerpt: The effect of AICAR on the regulatory T (Treg) cell population in the EAU mice was also directly assessed. Specifically, LN cells from five mice were harvested at 21 days after immunization and stained with a mouse regulatory T cell staining kit #2 (eBioscience) according to manufacturer's instructions. CD4^+CD25^+Foxp3^+ Treg populations were subsequently detected by flow cytometry.

[5] = AICAR-treated EAU mice, real-time PCR
[6] = LN cells from AICAR-treated EAU mice, ELISA

Structure (SMILES): NC(=O)c1ncn([C@@H]2O[C@H](CO)[C@@H](O)[C@H]2O)c1N [AICAR, 5-aminoimidazole-4-carboxamide-1-β-d-ribofuranoside]
- EAU mean pathologic score ([1]; AICAR 200 mg/kg i.p. daily day 0 to 21, day 21, scale 0-4, control 1.65±0.68): 0.53±0.73
- EAU mean pathologic score, effector phase treatment ([1]; AICAR administered from day 8 to 21 after immunization, n=8, controls 1.03±0.75): 0.13±0.27
- ICAM-1 in serum (ICAM-1; 3 hours after LPS, n=11, LPS 28.7 ± 8.1): 21.6 ± 5.0 ng/mL
- ICAM-1 in aqueous humor (ICAM-1; 24 h after LPS, n=12, LPS 8.7 ± 4.4): 4.4 ± 3.3 ng/mL
- ICAM-1 in retina (ICAM-1; 24 h after LPS, n=14, LPS 316.4 ± 132.3): 202.9 ± 113.4 pg/total retinal protein
- RORγt mRNA expression in CD4 T cells (lymph node (LN) cells; [5]): suppressed
- T-bet mRNA expression in CD4 T cells (lymph node (LN) cells; [5]): suppressed
- T cell proliferation (BrdU), anti-CD3 stimulation (lymph node (LN) cells; LN cells from AICAR treated vs control mice): no difference
- IFN-γ production by LN cells (lymph node (LN) cells; [6]): significantly suppressed
- IL-10 production by LN cells (lymph node (LN) cells; [6]): significantly suppressed
- IL-17 production by LN cells (lymph node (LN) cells; [6]): significantly suppressed
- Antigen-specific T cell proliferation (BrdU), IRBP stimulation (lymph node (LN) cells; LN cells from AICAR-treated vs untreated EAU mice, dose-dependent manner): suppressed
- EAU mean clinical score ([2]; AICAR 200 mg/kg i.p. daily day 0 to 21, day 21, scale 0-4, n=15, control 2.6±0.70): 1.32±0.95
- Clinical inflammation on fundus examination ([2]; AICAR 100 or 200 mg/kg daily, dose-dependent manner): suppressed
- EAU mean clinical score, effector phase treatment ([2]; AICAR administered from day 8 to 21 after immunization, n=8, controls 2.44±0.56): 1.50±0.86
- Number of leukocytes infiltrated around the iris-ciliary body (histopathology) [3]: suppressed
- CD4+CD25+Foxp3+ Treg population [4]: not significantly different
